According to patent US5578479A, “Alpha-amylase from hyperthermophilic archaebacterium” (The Johns Hopkins University, priority 1992, dated 1996):
Structures can show the parent of a compound that is named as a salt.

Key:
[1] = biological target: T1, Pyrococcus furiosus α-amylase, purified, wild type, SEQ ID NO:1 (Pyrococcus furiosus, UniProt P49067); assay: activity stained native-PAGE after heating samples with additive; format: biochemical; conditions: sample heated 15 minutes
T1 construct: made in house; host or cells: Pyrococcus furiosus DSM 3638, native cells (not recombinant); cytosolic fraction, three ion exchange steps and electroelution
T1 sequence (P49067 2-649): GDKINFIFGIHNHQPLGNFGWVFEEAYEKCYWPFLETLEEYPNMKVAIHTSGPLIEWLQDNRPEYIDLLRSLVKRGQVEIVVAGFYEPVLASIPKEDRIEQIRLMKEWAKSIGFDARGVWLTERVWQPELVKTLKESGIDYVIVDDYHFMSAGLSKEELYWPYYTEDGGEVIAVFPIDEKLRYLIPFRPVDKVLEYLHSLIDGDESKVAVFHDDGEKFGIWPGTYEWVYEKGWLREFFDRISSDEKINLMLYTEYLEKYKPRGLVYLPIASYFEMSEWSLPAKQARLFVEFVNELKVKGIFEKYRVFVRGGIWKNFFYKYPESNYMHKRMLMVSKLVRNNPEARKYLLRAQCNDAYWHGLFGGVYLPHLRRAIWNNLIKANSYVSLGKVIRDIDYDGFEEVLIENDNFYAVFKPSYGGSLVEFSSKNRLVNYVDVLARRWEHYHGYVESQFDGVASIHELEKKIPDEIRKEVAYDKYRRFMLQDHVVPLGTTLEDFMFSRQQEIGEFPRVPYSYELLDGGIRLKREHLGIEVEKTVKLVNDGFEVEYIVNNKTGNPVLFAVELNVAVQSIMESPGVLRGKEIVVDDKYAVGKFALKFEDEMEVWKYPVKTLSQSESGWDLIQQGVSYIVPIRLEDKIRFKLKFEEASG
Description: Samples were heated 15 min in the following: Lane 1, 100 mM sodium phosphate pH 7.0; Lane 2, 5 mM EDTA; Lane 3, % SDS; Lane 4, 12% β-mercaptoethanol. The samples were run on a native gel (8% acrylamide), containing 0.02% starch, and stained as described in the Examples.
Activity staining was accomplished by the incorporation of starch into the acrylamide matrix of the resolving gel. When preparing the gels, as described above, 0.05% soluble starch was used in place of distilled water when the gels were cast. To observe the thermophilic amylase activity following electrophoresis the spacers and the gel left between the glass plates were sealed with Saran Wrap to prevent dessication. The gel, between the plates, was then incubated for 30 minutes at 98° C., then stained with iodine solution (see above). […] Following this procedure it was still possible to stain the gel with Coomassie blue to visualize the proteins within the gel.
To determine the effect of denaturants and metal ions on the activity of P. furiosus α-amylase activity, stained native-PAGE or in vitro activity assays were utilized.

[2] = biological target: T1, Pyrococcus furiosus α-amylase, purified, wild type, SEQ ID NO:1; assay: standard activity assay in the presence of denaturants; format: biochemical; conditions: reagent present at 1M, 98° C.
Description: The dextrinizing activity of the α-amylase was determined using a modification of the assay of Manning and Campbell (Manning et al, J. Biological Chem. 236(11):2952-2957 (1961)). To 20 μl of sample were added 20 μl of 1% soluble starch and 20 μl of 100 mM sodium phosphate, pH 7.0. Controls were prepared using an equal volume of the appropriate buffer in place of the enzyme solution. The samples were incubated at 92° C. for 10 minutes and the reaction terminated by cooling in ice water. Color was developed by the addition of 15 μl of an iodine solution (4% KI, 1.25% I). An additional 1 ml of distilled water was added to each sample to dilute the color of the sample to a measurable range. The absorbance was read at 600 nm with a Pharmacia LB Ultraspec III Spectrophotometer. One unit of α-amylase activity was defined as the amount of protein which hydrolyzed 1 mg of starch per minute.
The extent of activity loss induced by the denaturants, urea and guanidine HCl, was determined using a standard activity assay in which the above-mentioned reagents were present in 1M concentrations. At 98° C. the residual activity in the presence of these denaturants was 86.5% and 73% for urea and guanidine HCl, respectively.

residual activity in the presence of denaturant [2] [%]	SMILES	other results
	O=C(O)CN(CCN(CC(=O)O)CC(=O)O)CC(=O)O [EDTA]	effect on activity (activity stained native-PAGE) ([1]; 5 mM EDTA): no significant effect on activity
73	N=C(N)N [guanidine HCl]	
86.5	NC(N)=O [urea]	
	OCCS [β-mercaptoethanol]	effect on activity (activity stained native-PAGE) ([1]; 2% β-mercaptoethanol): no significant effect on activity
